Results on 2 molecules are retold here after US20230357242A1, “COMPOUND AS AKT KINASE INHIBITOR” (CHIA TAI TIANQING PHARMACEUTICAL GROUP CO., LTD., priority 2020, published 2023).

pIC50: −log10 of the molar value. Where two headings read alike, the source gives them in different places.

The test system of one data set is LNcap cells. The experiment in a line: Inhibitory effect on proliferation of LNcap cells (CCK-8, 72 h). In kind it is cell-based. The settings on record: Homo sapiens, LNcap cells, CCK-8, read-out: LNcap cells IC50. As for the experimental part: A dish of LNcap cells (human prostate cancer cells with PTEN deficiency) growing at log phase and in good conditions were taken and digested for 3 min by using 1 mL of pancreatin, then the mixture was added with 4 mL of complete culture medium to terminate digestion, and the cells were added to a centrifuge tube. 20 μL of cells were taken and counted, the required number of cells (mL) was pipetted and centrifuged at 1200 rpm for 5 min, the supernatant was discarded, and an appropriate amount of plating medium (RPMI medium+5% FBS+1% sodium pyruvate+1% glutamine) was added to adjust the cell density to 3×10^4 cells/mL. The cells were seeded on a 96-well plate at 100 μL/well using a multi-channel pipette and cultured in a cell incubator at 37° C., 5% CO2 and saturated humidity. After incubation overnight, compounds were loaded using a nanoliter pipettor, 2 duplicate wells were set for each concentration, and cells without compound were used as negative controls. After 72 h, CCK-8 was added at 10 μL/well for incubation for 4 h, then absorbance was measured at 450 nm with an Envision plate reader, and inhibition rate was calculated. Inhibition rate (%)=(mean value of negative control group−mean value of experimental group)/(mean value of negative control group−mean value of blank group)×100%. A dose-response curve was fitted by four-parameter analysis, with the logarithm of compound concentration as abscissa and inhibition rate as ordinate, so that IC50 was calculated.

A further data set addresses T1, AKT1 (S473) (Homo sapiens, UniProt P31749).
T1 construct: endogenous in cells; host or cells: LNcap cells
The experiment in a line: Inhibitory effect on phosphorylation of LNcap cells AKT1 (S473). In kind it is cell-based. The following applies: 1 h incubation. As for the experimental part: LNcap cells AKT1 (S473) growing at log phase were taken, digested with 1 mL of pancreatin for 3 min, and added with 4 mL of complete medium to terminate digestion. The cells were added to a centrifuge tube. 20 μL of cells were taken and counted, the required number of cells (mL) was taken and centrifuged at 1200 rpm for 5 min, and a plating medium (2% FBS+phenol-free red 1640 base medium+1% sodium pyruvate+1% glutamine) was added to adjust the cell density to about 1×10E6 cells/mL. The cells were plated (96 wells) at the above cell density (100 μL/well), and cultured in a cell incubator at 37° C., 5% CO2 overnight; the next day, according to the plate distribution, the corresponding compound was sprayed using a nanoliter pipettor and incubated for 1 h at 37° C. in a cell incubator containing 5% CO2; the supernatant was discarded, and the plate was added with 40 μL of lysis buffer (1×) containing blocking buffer and incubated by shaking at room temperature for 30 min. After the mixture was mixed, 16 μL of lysate was transferred to another 384-well small-volume white plate. The plate was added with 4 μL of pre-mixed antibody (v/v) in assay buffer, covered, centrifuged to mix well, and incubated overnight at room temperature. The 665 nm/620 nm signal value was detected using a PE Envision multi-functional microplate reader, and IC50 was calculated by four-parameter fitting.

The nature of data set [1]: Pharmacokinetic evaluation in mice. The settings on record: ICR mice; for AUC(0-inf) / AUC(0-t) / Cmax / Tmax / bioavailability / MRT last / Vd: mouse, plasma; for bioavailability: IG 10 mg/kg vs IV 1 mg/kg, read-out: Absolute bioavailability F %; for MRT last: read-out: MRT(0-t). Also on record: Cl: unit not given here. It is filed as in vivo. As for the experimental part:
ICR mice, weight 18-22 g, after adaption for 3-5 days, were randomly divided into 4 groups of 9 mice, each group was intragastrically (IG) administered with compound 28 or compound 30 at a dose of 10 mg/kg, or intravenously (IV) administered with compound 28 or compound 30 at a dose of 1 mg/kg.
The animals to be tested (ICR mice) were fasted for 12 h before administration and food was provided 4 h after administration, and water was freely drunk before and after the experiment and during the experiment.
After intragastric administration, about 0.1 mL of blood was taken from eye sockets at 15 min, 30 min, 1 h, 2 h, 3 h, 4 h, 6 h, 8 h, 10 h, and 24 h; after intravenous injection, about 0.1 mL of blood was taken from eye sockets at 5 min, 10 min, 30 min, 1 h, 2 h, 4 h, 6 h, 8 h, 10 h, and 24 h; each mouse was collected at 3-4 time points and 3 mice were collected at each time point, whole blood was collected, placed in centrifuge tubes containing EDTA-K2, and stored at 4° C. within 1 h, and the plasma was separated off by centrifugation at 4° C. and 4000 rpm for 10 min. All the plasma samples were collected and immediately stored at −20° C. for testing. 30 μL of the plasma sample to be tested and a standard curve sample were pipetted and added with 300 μL of acetonitrile solution containing an internal standard (20 ng/mL diazepam), shaken and mixed well for 5 min, and centrifuged at 13,000 rpm for 10 min. 80 μL of supernatant was taken and diluted with 80 μL of ultrapure water. After being mixed well, 2 μL of the resulting sample was taken for liquid chromatography-mass determination, and a chromatogram was recorded.
Oral and intravenous exposure of the compound of the present application was evaluated by in vivo pharmacokinetic experiment in mice.

T1 sequence (P31749 whole entry): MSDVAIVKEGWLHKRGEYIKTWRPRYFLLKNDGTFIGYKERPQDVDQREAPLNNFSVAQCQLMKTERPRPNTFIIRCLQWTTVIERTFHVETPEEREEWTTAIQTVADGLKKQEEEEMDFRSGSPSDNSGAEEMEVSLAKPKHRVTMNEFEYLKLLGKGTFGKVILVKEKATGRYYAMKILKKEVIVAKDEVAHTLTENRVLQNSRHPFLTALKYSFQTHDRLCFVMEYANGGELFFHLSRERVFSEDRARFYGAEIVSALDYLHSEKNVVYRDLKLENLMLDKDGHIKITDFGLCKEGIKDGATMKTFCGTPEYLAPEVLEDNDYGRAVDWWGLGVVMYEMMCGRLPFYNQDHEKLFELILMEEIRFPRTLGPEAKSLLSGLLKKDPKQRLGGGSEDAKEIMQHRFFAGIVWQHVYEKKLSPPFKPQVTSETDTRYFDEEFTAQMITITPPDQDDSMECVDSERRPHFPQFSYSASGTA

As to `CC(=O)N1CC2(CCN(c3cccc(-c4ccc5nc(-c6cccnc6N)n(-c6ccc(C7(N)CCC7)cc6)c5n4)c3F)CC2)C1` [Compound 44], the pIC50 in the data set with LNcap cells is 8.77. At AKT1 (S473), the negative logarithm of the IC50 (pIC50) was 7.92. The molecule also came in with a t1/2z in data set [1] (IG 10 mg/kg) of 3.61 h. In data set [1] (IV 1 mg/kg), this molecule came in with a Cl of 0.206, a t1/2z of 1.34 h, an AUC(0-inf) of 4840 ng·h/mL and an AUC(0-t) of 4840 ng·h/mL. Moreover, in data set [1] (IV 1 mg/kg), the Vd was 0.398 L/kg and the MRT last was 0.817 h. In data set [1] (po, IG 10 mg/kg), the area under the curve AUC(0-inf) was 25100 ng·h/mL, the area under the curve AUC(0-t) is 25000 ng·h/mL, the highest level (Cmax) was 4960 ng/mL and the time to peak (Tmax) was 2 h. Moreover, in data set [1] (po, IG 10 mg/kg), the MRT last was 3.58 h. For the same molecule, the bioavailability in data set [1] (po) is 51.7%.
Consider `CN1CC2(CCN(c3cccc(-c4ccc5nc(-c6cccnc6N)n(-c6ccc(C7(N)CCC7)cc6)c5n4)c3F)CC2)CC1=O` [Compound 45], for which, in the data set on LNcap cells, the pIC50 was 8.77. This molecule showed a pIC50 on AKT1 (S473) of 8.11. Further, the t1/2z in data set [1] (IG 10 mg/kg) is 2.06 h. In data set [1] (IV 1 mg/kg), this molecule showed a Cl of 0.23, a t1/2z of 1.159 h, an area under the curve AUC(0-inf) of 4340 ng·h/mL and an AUC(0-t) of 4240 ng·h/mL. Also, in data set [1] (IV 1 mg/kg), the Vd came to 5.42 L/kg and the MRT last worked out at 1.18 h. Also, in data set [1] (po, IG 10 mg/kg), the total exposure AUC(0-inf) stood at 14500 ng·h/mL, the AUC(0-t) was found to be 14500 ng·h/mL, the Cmax is 4020 ng/mL and the Tmax turned out to be 0.25 h. The MRT last in data set [1] (po, IG 10 mg/kg) worked out at 3.95 h. Further, in data set [1] (po), the bioavailability turned out to be 34.3%.

The term pIC50 denotes −log10 of the IC50, conventionally taken in molar units. By AUC(0-inf) is commonly meant total exposure, with the tail of the curve extrapolated. What is called AUC(0-t) is the area under the concentration-time curve up to a stated or last time point. Usually Cmax stands for the maximum level reached in the sampled fluid or tissue. A word on the Tmax: it is the time at which the peak concentration occurs. A word on the bioavailability: it is the share of a dose that reaches the circulation, judged against a reference dose that is usually intravenous. As a reminder, the Vd is the apparent volume that relates the amount in the body to the concentration in plasma or blood.
